Source: patent publication US11046680B1, “Heteroaryl-substituted triazoles as APJ receptor agonists” (priority 2016, dated 2021)

Target: human APJ receptor (Homo sapiens (Human), UniProt P35414)
Experiment: biochemical
Format: biochemical
Settings: [35S]GTPγS binding, CHO membranes expressing human APJ receptor; read-out: Activity hAPJ SPA EC50 IP
Outline: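 GTPγS binding on membranes from CHO cells stably expressing FLAG-tagged human APJ, with optimized GDP, MgCl2 and NaCl; incubated 90 min at RT before imaging read-out.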

Chain of human APJ receptor (P35414 whole entry): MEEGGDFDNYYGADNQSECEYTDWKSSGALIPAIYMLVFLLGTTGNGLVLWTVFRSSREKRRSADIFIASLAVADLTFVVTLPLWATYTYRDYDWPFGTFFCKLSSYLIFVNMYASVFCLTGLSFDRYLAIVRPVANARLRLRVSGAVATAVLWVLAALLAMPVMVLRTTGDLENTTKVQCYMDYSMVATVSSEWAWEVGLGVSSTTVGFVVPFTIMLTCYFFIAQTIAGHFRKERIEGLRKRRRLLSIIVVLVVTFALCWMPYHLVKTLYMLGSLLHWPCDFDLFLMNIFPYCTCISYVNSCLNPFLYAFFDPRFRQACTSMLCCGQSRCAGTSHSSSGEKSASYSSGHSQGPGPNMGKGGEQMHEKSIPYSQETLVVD

Compared with `COc1cccc(OC)c1-n1c(NS(=O)(=O)[C@@H](C)[C@H](OC)c2ncc(C)cn2)nnc1-c1cnn2c1CCC2` [Example 444.0, (1R,2S)-N-(5-(5,6-dihydro-4H-pyrrolo[1,2-b]pyrazol-3-yl)-4-(2,6-dimethoxyphenyl)-4H-1,2,4-triazol-3-yl)-1-methoxy-1-(5-methylpyrimidin-2-yl)propane-2-sulfonamide], `COc1cccc(OC)c1-n1c(NS(=O)(=O)[C@H](C)Cc2ncc(F)cn2)nnc1-c1conc1C` (single isomer, unassigned) [Example 65.0, (R)-N-(4-(2,6-dimethoxyphenyl)-5-(3-methylisoxazol-4-yl)-4H-1,2,4-triazol-3-yl)-1-(5-fluoropyrimidin-2-yl)propane-2-sulfonamide or (S)-N-(4-(2,6-dimethoxyphenyl)-5-(3-methylisoxazol-4-yl)-4H-1,2,4-triazol-3-yl)-1-(5-fluoropyrimidin-2-yl)propane-2-sulfonamide] is 63-fold higher in EC50: 1.2 nM for the first, 76 nM for the second. The first is the more potent here.

Going from `CO[C@H](c1ncc(Cl)cn1)[C@H](C)S(=O)(=O)Nc1nnc(-c2cnn3ccccc23)n1C1CC1` [Example 507.0, (1R,2S)-1-(5-chloropyrimidin-2-yl)-N-(4-cyclopropyl-5-(pyrazolo[1,5-a]pyridin-3-yl)-4H-1,2,4-triazol-3-yl)-1-methoxypropane-2-sulfonamide] to `COc1cccc(OC)c1-n1c(NS(=O)(=O)[C@@H](C)[C@H](OC)c2ncc(C)cn2)nnc1-c1cscn1` [Example 342.0, (1R,2S)-N-(4-(2,6-dimethoxyphenyl)-5-(1,3-thiazol-4-yl)-4H-1,2,4-triazol-3-yl)-1-methoxy-1-(5-methyl-2-pyrimidinyl)-2-propanesulfonamide], the EC50 falls from 38 nM to 0.5 nM (76-fold).

Going from `CNC(=O)n1ccc(-c2nnc(NS(=O)(=O)[C@@H](C)Cc3ncc(F)cn3)n2-c2c(OC)cccc2OC)n1` (single isomer, unassigned) [Example 73.0, (R)-3-(4-(2,6-dimethoxyphenyl)-5-(2-(5-fluoropyrimidin-2-yl)-1-methylethylsulfonamido)-4H-1,2,4-triazol-3-yl)-N-methyl-1H-pyrazole-1-carboxamide or (S)-3-(4-(2,6-dimethoxyphenyl)-5-(2-(5-fluoropyrimidin-2-yl)-1-methylethylsulfonamido)-4H-1,2,4-triazol-3-yl)-N-methyl-1H-pyrazole-1-carboxamide] to `COCC(COC)n1c(NS(=O)(=O)[C@@H](C)[C@H](C)c2cnc(OC)cn2)nnc1-c1ccn(C)n1` [Example 453.0, (2S,3R)-N-(4-(1,3-dimethoxy-2-propanyl)-5-(1-methyl-1H-pyrazol-3-yl)-4H-1,2,4-triazol-3-yl)-3-(5-methoxy-2-pyrazinyl)-2-butanesulfonamide], the EC50 rises from 29 nM to 73 nM (2.5-fold).

Going from `COc1cccc(OC)c1-n1c(NS(=O)(=O)[C@@H](C)[C@H](OC)c2ncc(Cl)cn2)nnc1-c1cc(C)on1` [Example 496.0, (1R,2S)-1-(5-chloropyrimidin-2-yl)-N-(4-(2,6-dimethoxyphenyl)-5-(5-methylisoxazol-3-yl)-4H-1,2,4-triazol-3-yl)-1-methoxypropane-2-sulfonamide] to “(1R,2S)-N-(4-(2,6-dimethoxyphenyl)-5-(1-methyl-1H-pyrazol-3-yl)-4H-1,2,4-triazol-3-yl)-1-methoxy-1-(5-methoxy-2-pyrazinyl)-2-propanesulfonamide and (1S,2R)-N-(4-(2,6-dimethoxyphenyl)-5-(1-methyl-1H-pyrazol-3-yl)-4H-1,2,4-triazol-3-yl)-1-methoxy-1-(5-methoxy-2-pyrazinyl)-2-propanesulfonamide [Example 307.0]”, the EC50 rises from 0.62 nM to 1 nM (1.6-fold).

Going from `CCc1csc(-c2nnc(NS(=O)(=O)[C@H](C)Cc3ncc(F)cn3)n2-c2c(OC)cccc2OC)n1` [Example 106.0] to `COc1ncnc(OC)c1-n1c(NS(=O)(=O)[C@@H](C)[C@H](C)c2ncc(F)cn2)nnc1-c1cnn2c1CCC2` [Example 480.0, (2S,3R)-N-(5-(5,6-dihydro-4H-pyrrolo[1,2-b]pyrazol-3-yl)-4-(4,6-dimethoxypyrimidin-5-yl)-4H-1,2,4-triazol-3-yl)-3-(5-fluoropyrimidin-2-yl)butane-2-sulfonamide], the EC50 falls from 21 nM to 4.4 nM (4.8-fold). The second is the more potent here.

Going from `COc1ccc([C@@H](OC)[C@H](C)S(=O)(=O)Nc2nnc(-c3ccn(C)n3)n2-c2c(OC)ncnc2OC)nc1` [Example 455.0, (1R,2S)-N-(4-(4,6-dimethoxy-5-pyrimidinyl)-5-(1-methyl-1H-pyrazol-3-yl)-4H-1,2,4-triazol-3-yl)-1-methoxy-1-(5-methoxy-2-pyridinyl)-2-propanesulfonamide] to `COc1cccc(OC)c1-n1c(NS(=O)(=O)[C@@H](C)[C@H](OC)c2ncc(C)cn2)nnc1-c1cc(C2CC2)on1` [Example 424.0, (1R,25)-N-(5-(5-cyclopropylisoxazol-3-yl)-4-(2,6-dimethoxyphenyl)-4H-1,2,4-triazol-3-yl)-1-methoxy-1-(5-methylpyrimidin-2-yl)propane-2-sulfonamide], the EC50 rises from 5.7 nM to 21 nM (3.7-fold).

Compared with `COc1cccc(OC)c1-n1c(NS(=O)(=O)[C@@H](C)[C@H](OC)c2ncc(C)cn2)nnc1-c1cc(C)on1` [Example 425.0, (1R,25)-N-(4-(2,6-dimethoxyphenyl)-5-(5-methylisoxazol-3-yl)-4H-1,2,4-triazol-3-yl)-1-sulfonamide], `COc1ncnc(OC)c1-n1c(NS(=O)(=O)[C@@H](C)[C@H](C)c2ncc(Cl)cn2)nnc1-c1ccn(C)n1` [Example 294.0, (2S,3R)-3-(5-chloro-2-pyrimidinyl)-N-(4-(4,6-dimethoxy-5-pyrimidinyl)-5-(1-methyl-1H-pyrazol-3-yl)-4H-1,2,4-triazol-3-yl)-2-butanesulfonamide] is 17-fold lower in EC50: 8.1 nM for the first, 0.49 nM for the second.

Going from `COc1cccc(OC)c1-n1c(NS(=O)(=O)[C@H](C)Cc2ncc(F)cn2)nnc1-c1cnccn1` (single isomer, unassigned) [Example 29.0, (R)-N-(4-(2,6-dimethoxyphenyl)-5-(pyrazin-2-yl)-4H-1,2,4-triazol-3-yl)-1-(5-fluoropyrimidin-2-yl)propane-2-sulfonamide or (S)-N-(4-(2,6-dimethoxyphenyl)-5-(pyrazin-2-yl)-4H-1,2,4-triazol-3-yl)-1-(5-fluoropyrimidin-2-yl)propane-2-sulfonamide] to `O=S(=O)(Cc1ccc(Cl)cc1)Nc1nnc(-c2cccs2)n1-c1ccccc1OC(F)F` [Example 237.0, 1-(4-chlorophenyl)-N-(4-(2-(difluoromethoxy)phenyl)-5-(2-thiophenyl)-4H-1,2,4-triazol-3-yl)methanesulfonamide], the EC50 rises from 47 nM to > 12500 nM. The first is the more potent here.

Work on `C=CCO[C@@H](c1ncc(F)cn1)[C@@H](C)S(=O)(=O)Nc1nnc(-c2nc(C)cs2)n1-c1c(OC)cccc1OC` (single isomer, unassigned) [Example 169.0, (1S,2R)-1-(Allyloxy)-N-(4-(2,6-dimethoxyphenyl)-5-(4-methylthiazol-2-yl)-4H-1,2,4-triazol-3-yl)-1-(5-fluoropyrimidin-2-yl)propane-2-sulfonamide or (1R,2S)-1-(allyloxy)-N-(4-(2,6-dimethoxyphenyl)-5-(4-methylthiazol-2-yl)-4H-1,2,4-triazol-3-yl)-1-(5-fluoropyrimidin-2-yl)propane-2-sulfonamide] yielded an EC50 of 0.46 nM.
